# Measurements as given in PubChem BioAssay AID2060509 (Molecular Pharmacology Branch, DTP, NCI, 2025).
# Test system: 485176-168-R4-J1-PDC spheroids with HUVEC/MSC, viability
# Experiment: Anticancer human tumor 485176-168-R4-J1-PDC patient-derived pancreatic adenocarcinoma cell line growth inhibition [GQUAD]
# Conditions: for IC50: curve of first compound; for viability, T/C: stronger effect = lower value
# Excerpt: DNA G-quadruplex Stabilizer Agents in Combinations in Complex Spheroids
# A high-throughput screen of multi-cell type tumor spheroids was designed to identify active combinations of DNA G-quadruplex stabilizer agents and targeted small molecules. Complex spheroids include a stromal component modeled by human endothelial cells (HUVEC) and fibroblasts modeled by human mesenchymal stem cells (MSCs). The concentration ranges selected for each drug and investigational agent were based upon clinically achievable concentrations if the clinical Cmax of the agent was known.
# Compounds. The drugs and investigational agents: pidnarulex (CX-5461; NSC782164), APTO-253 (NSC789042), BRACO-19 (NSC847499), peposertib (NSC802822), ceralasertib (NSC780249), elimusertib (NSC800525), camonsertib (NSC841442), AZD-1390 (NSC803789), olaparib (NSC753686), talazoparib (NSC767125), ART-558 (NSC835418), sotorasib (NSC818433), MRTX-1133 (NSC836407), SN-38 (NSC673596), topotecan (NSC609699), etoposide (NSC141540), doxorubicin (NSC123127), gemcitabine (NSC613327), 5-fluorouracil (NSC19893), paclitaxel (NSC125973), vemurafenib (NSC761431), panobinostat (NSC761190), R-306465 (JNJ-16241199; NSC773264), adavosertib (NSC754352), TP-3654 (NSC805149), carboplatin (NSC241240), KSQ-4279 (NSC840948), and staurosporine (NSC755774) were obtained from the National Cancer Institute (NCI) Developmental Therapeutics Program Chemical Repository (34). The FDA-approved anticancer drug set is available from the NCI Developmental Therapeutics Program. […] The stock solutions were prepared in dimethyl sulfoxide (DMSO, Sigma-Aldrich, St. Louis, MO, cat. D2650) at 800-fold the tested concentration and stored at -70 degrees C prior to their use. All drugs and investigational agents were tested over a range starting from a high concentration at or near the clinical Cmax and decreasing in half-log increments. If the clinical Cmax for an agent had not been determined, the highest concentration tested was 10 microM.
# 2.3 Cell Culture. All cells were maintained in an incubator at 37 degrees C and 5% CO2 with 95% humidity. The PDC lines were cultured according to standard operating procedures established by the NCI PDMR. All PDCs were thawed and cultured in Matrigel-coated flasks prepared with a working solution of 1X Ham's F-12 nutrient mix, without supplementation (Invitrogen, cat. 11765054), 100 U/mL penicillin-streptomycin (Invitrogen, cat. 15140122), and 2.5% Matrigel (Corning Inc., cat. 354248) for the first three passages. The 857933-349-R-J2-PDC line was cultured in 6C/Colon 1B media, which includes advanced DMEM/F-12 (Thermo Fisher Scientific, cat. 12634028), 10 mM HEPES (Thermo Fisher Scientific, cat. 15630080), 1X GlutaMAX supplement (Thermo Fisher Scientific, cat. 35050061), 0.1 mg/mL primocin (InvivoGen, cat. ant-pm-2), 10% defined fetal bovine serum, heat inactivated (HyClone Laboratories Inc., cat. SH30070.03HI), 50% L-WRN conditioned media (ATCC, cat. CRL-3276), 1.25 mM N-Acetyl-L-cysteine (Sigma-Aldrich, cat. A9165), 10 mM nicotinamide (Sigma-Aldrich, cat. N0636), 1X B-27 supplement (Thermo Fisher Scientific, cat. 17504044), 1X N-2 supplement (Thermo Fisher Scientific, cat. 17502048), 10 microM Y-27632 dihydrochloride (Tocris Bioscience, cat. 1254), and 50 ng/mL human EGF recombinant protein (Thermo Fisher Scientific, cat. PHG0311). The 485176-168-R4-J1-PDC line was cultured in Panc media, which includes all 6C/Colon 1B media components plus 100 ng/mL human FGF-10 (Thermo Fisher Scientific, cat. 100-26), 500 nM SB-431542 (Selleckchem, cat. S1067), and gastrin (Tocris, cat. 3006).
# […]
# 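Also: spheroids exposed to compounds for seven days before readout.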
# 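For viability, T/C in this document: percent viability relative to DMSO vehicle control wells as 100%.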
compound,measurement,setting,value
O=C(NO)c1cnc(N2CCN(S(=O)(=O)c3ccc4ccccc4c3)CC2)nc1 + Cc1cnc(CNC(=O)c2c(=O)c3ccc(N4CCCN(C)CC4)nc3n3c2sc2ccccc23)cn1,IC50,second compound 0.0316 µM,0.322 µM
same,IC50,second compound 0.1 µM,0.185 µM
same,IC50,second compound 0.316 µM,0.132 µM
same,IC50,second compound 1 µM,< 0.0316 µM
same,IC50,second compound 3.16 µM,< 0.0316 µM
same,IC50,second compound 10 µM,< 0.0316 µM
same,"viability, T/C","second compound 0.0316 µM, first compound 0.0316 µM",81%
same,"viability, T/C","second compound 0.0316 µM, first compound 0.1 µM",62.6%
same,"viability, T/C","second compound 0.0316 µM, first compound 0.316 µM",53.3%
same,"viability, T/C","second compound 0.0316 µM, first compound 1 µM",8.83%
same,"viability, T/C","second compound 0.0316 µM, first compound 3.16 µM",0.53%
same,"viability, T/C","second compound 0.0316 µM, first compound 10 µM",0.27%
same,"viability, T/C","second compound 0.1 µM, first compound 0.0316 µM",66.3%
same,"viability, T/C","second compound 0.1 µM, first compound 0.1 µM",57.2%
same,"viability, T/C","second compound 0.1 µM, first compound 0.316 µM",42%
same,"viability, T/C","second compound 0.1 µM, first compound 1 µM",8.37%
same,"viability, T/C","second compound 0.1 µM, first compound 3.16 µM",0.28%
same,"viability, T/C","second compound 0.1 µM, first compound 10 µM",1.03%
same,"viability, T/C","second compound 0.316 µM, first compound 0.0316 µM",59.1%
same,"viability, T/C","second compound 0.316 µM, first compound 0.1 µM",51.5%
same,"viability, T/C","second compound 0.316 µM, first compound 0.316 µM",35.7%
same,"viability, T/C","second compound 0.316 µM, first compound 1 µM",2.63%
same,"viability, T/C","second compound 0.316 µM, first compound 3.16 µM",0.22%
same,"viability, T/C","second compound 0.316 µM, first compound 10 µM",0.44%
same,"viability, T/C","second compound 1 µM, first compound 0.0316 µM",39.8%
same,"viability, T/C","second compound 1 µM, first compound 0.1 µM",44.7%
same,"viability, T/C","second compound 1 µM, first compound 0.316 µM",23.2%
same,"viability, T/C","second compound 1 µM, first compound 1 µM",0.9%
same,"viability, T/C","second compound 1 µM, first compound 3.16 µM",1.33%
same,"viability, T/C","second compound 1 µM, first compound 10 µM",0.81%
same,"viability, T/C","second compound 3.16 µM, first compound 0.0316 µM",45.5%
same,"viability, T/C","second compound 3.16 µM, first compound 0.1 µM",41.9%
same,"viability, T/C","second compound 3.16 µM, first compound 0.316 µM",18.6%
same,"viability, T/C","second compound 3.16 µM, first compound 1 µM",0.3%
same,"viability, T/C","second compound 3.16 µM, first compound 3.16 µM",0.21%
same,"viability, T/C","second compound 3.16 µM, first compound 10 µM",0.18%
same,"viability, T/C","second compound 10 µM, first compound 0.0316 µM",36.3%
same,"viability, T/C","second compound 10 µM, first compound 0.1 µM",33.3%
same,"viability, T/C","second compound 10 µM, first compound 0.316 µM",14.1%
same,"viability, T/C","second compound 10 µM, first compound 1 µM",0.24%
same,"viability, T/C","second compound 10 µM, first compound 3.16 µM",1.65%
same,"viability, T/C","second compound 10 µM, first compound 10 µM",0.46%
